Patent publication US20120309683A1, “USE OF […] ADENYLATE CYCLASE-ACTIVATING POLYPEPTIDE (PACAP) AND PACAP ANALOGS AS ADJUNCTIVE TREATMENTS WITH INHIBITORS OF CALCINEURIN OR INHIBITORS OF THE […] TARGET OF RAPAMYCIN (mTOR) COMPLEXES” (The Administrators of the Tulane Educational Fund, priority 2010, published 2012)
Read-outs that look alike come from different tables or passages of the source. Where no end group is shown, it is not given here. [ ]: non-standard residue; d: D form. The star is where a group is joined. Palmitoyl = CCCCCCCCCCCCCCCC(=O)*; Aib = CC(C)(N)C(=O)O

Legend:
[1] = tested on: HK-2 human kidney cells (human renal proximal tubule epithelial cells); test: Sirolimus-induced apoptotic cell death of HK-2 cells, histone-associated DNA fragmentation; assay type: cell-based
Experimental: The HK-2 human kidney cells were cultured in Keratinocyte-Serum Free Medium supplemented with recombinant epidermal growth factor and bovine pituitary extract. The dose-dependent inhibitory effect of PACAP38 on apoptotic cell death was assessed by the quantitative determination of cytoplasmic histone-associated DNA-fragmentation (mono- and oligonucleosomes) after exposure to 100 ng/ml of sirolimus for 24 hours. Each value represents the mean plus/minus the standard error of eight determinations. **p<0.01 and *p<0.05 compared to the cells treated only with sirolimus.

[2] = tested on: light-chain immunoglobulin-secreting human multiple myeloma cells; test: Proliferation of multiple myeloma cells with sirolimus, bromodeoxyuridine incorporation; assay type: cell-based; conditions: for rate of proliferation of the human B-lymphocyte cell line: multiple myeloma cells with sirolimus, 10^−9 M to 10^−6 M peptide, 24-hour incubation
Experimental: The light-chain immunoglobulin-secreting human multiple myeloma cells were cultured in RPMI 1640 medium supplemented with 10% non-inactivated fetal bovine serum and 0.05 mM 2-mercaptoethanol. The effects of PACAP38, PACAP27 and PACAP analogs on myeloma cell proliferation were assessed by determining incorporation of bromodeoxyuridine into DNA during cell division. The number of myeloma cells approximately doubled during the 24-hour incubation period in the absence of treatment with PACAP-like peptides. Four different concentrations, ranging from 10^−9 M to 10^−6 M, were tested for PACAP38, PACAP27 and each of the PACAP analogs. Each value represents the mean plus/minus the standard error of four determinations. **p<0.01 and *p<0.05 compared to the cells treated only with sirolimus.
The effects of PACAP38, PACAP27 and PACAP analogs on human cell proliferation were assessed by determining incorporation of bromodeoxyuridine into DNA during cell division. […] At the highest dose (10^−6 M), PACAP38 inhibited the proliferation by more than 50%.

[3] = tested on: HK-2 human kidney cells (human renal proximal tubule epithelial cells); test: Cyclosporine A-induced injury (cytotoxicity) of HK-2 cells, lactate dehydrogenase in culture medium; assay type: cell-based; conditions: PACAP38 10^−8 M added to medium of cyclosporine A-treated HK-2 cells
Experimental: (§1) The effects of PACAP38 at a concentration of 10^−8 M on cell injury were assessed by determining the activity of the cytoplasmic enzyme lactate dehydrogenase in the culture medium. Each value represents the mean plus/minus the standard error of four determinations. **p<0.01 compared to the cells treated only with cyclosporine A.

[4] = tested on: human renal proximal tubule epithelial cells (HK-2); test: TGF-β1 secretion by HK-2 cells treated with cyclosporine A; assay type: cell-based; conditions: PACAP38 10^−8 M, cyclosporine A-treated HK-2 cells
Experimental: as §1, with “the production of TGF-β1” for “cell injury”, “concentration” for “activity”, “TGF-β1” for “the cytoplasmic enzyme lactate dehydrogenase”, “six” for “four”

HK-2 human kidney cells = test: Morphology of HK-2 cells, phase-contrast microscopy; assay type: cell-based; conditions: 50 μM cyclosporine A and 10^−8 M PACAP38 for 48 hours
Experimental: The cells were visualized with an inverted phase-contrast microscope. The HK-2 human kidney cells were grown to 80% confluence. (A) The morphology of the HK-2 cells grown in normal medium.

Male C57BL/6 mice = test: Cyclosporine A-induced nephrotoxicity in mice (serum creatinine, kidney TGF-β1); assay type: in vivo; conditions: cyclosporine A 5 mg/kg i.p., 20 μg PACAP38 i.p. 1 h before, 24 and 48 h
Experimental: The control group of mice was injected intraperitoneally with the same volume of saline as for the injections of cyclosporine A and PACAP38 on the same schedule. The mice were euthanized 24 hours after the final injection of PACAP38.
Male C57BL/6 mice were given a single intraperitoneal injection of 5 mg/kg of cyclosporine A. Twenty micrograms of PACAP38 were given intraperitoneally 1 hour before the injection of cyclosporine A and additional doses were given at 24 and 48 hours after the initial dose. The control group of mice was injected intraperitoneally with the same volume of saline as for the injections of cyclosporine A and PACAP38 on the same schedule. The mice were euthanized 24 hours after the final injection of PACAP38.

[5] = tested on: HK-2 human kidney cells (human renal proximal tubule epithelial cells); test: Tacrolimus-induced loss of viability of HK-2 cells, lactate dehydrogenase in intact cells; assay type: cell-based; conditions: for loss of viable human renal proximal tubule epithelial cells caused by tacrolimus: various concentrations of peptide added to medium
Experimental: The HK-2 human kidney cells were cultured in Keratinocyte-Serum Free Medium supplemented with recombinant epidermal growth factor and bovine pituitary extract. […] Each value represents the mean plus/minus the standard error of five determinations. **p<0.01 and *p<0.05 compared to the cells treated only with tacrolimus.

[6] = tested on: Jurkat human T-lymphocyte cells; test: Mitogen-stimulated secretion of interleukin-2 from Jurkat cells; assay type: cell-based; conditions: PHA and PMA stimulated Jurkat cells; for mitogen-induced secretion of interleukin-2 into the medium: 24 hours
Experimental: The Jurkat human T-lymphocyte cells were cultured in RPMI 1640 medium supplemented with 10% heat-inactivated fetal calf serum. The Jurkat cells were stimulated with the mitogens phytohemagglutinin (PHA, 1 mg/ml) and phorbol 12-myristate 13-acetate (PMA, 50 ng/ml). […] Each value represents the mean plus/minus the standard error of eight determinations. **p<0.01 and *p<0.05 compared to the cells treated only with the mitogens.
(§2) However, when Jurkat cells were stimulated with PHA and PMA, large quantities of interleukin-2 could be detected in the medium (FIG. 9). […] At the highest dose (10^−5 M), PACAP38 inhibited the proliferation of the Jurkat cells by more than 50%.

[7] = tested on: Jurkat human T-lymphocyte cells; test: Proliferation of Jurkat cells, bromodeoxyuridine incorporation; assay type: cell-based; conditions: for rate of proliferation of the human T-lymphocyte cell line: mitogen-stimulated Jurkat cells, 24 hours
Experimental: The Jurkat human T-lymphocyte cells were cultured in RPMI 1640 medium supplemented with 10% heat-inactivated fetal calf serum. The Jurkat cells were stimulated with mitogens (1 mg/ml of PHA and 50 ng/ml of PMA).
as §2

[8] = tested on: Jurkat human T-lymphocyte cells; test: Inhibition by cyclosporine A of IL-2 secretion from Jurkat cells, enhancement by peptides; assay type: cell-based; conditions: peptide added on top of cyclosporine, 24 hours
Experimental: The Jurkat human T-lymphocyte cells were cultured in RPMI 1640 medium supplemented with 10% heat-inactivated fetal calf serum. The Jurkat cells were stimulated with mitogens (1 mg/ml of PHA and 50 ng/ml of PMA). […] Each value represents the mean plus/minus the standard error of eight determinations. **p<0.01 and *p<0.05 compared to the cells treated only with the mitogens.
However, when Jurkat cells were stimulated with PHA and PMA, large quantities of interleukin-2 could be detected in the medium (FIG. 11).

[9] = tested on: human renal proximal tubule epithelial cells; test: Methotrexate-induced apoptotic cell death of human renal proximal tubule epithelial cells; assay type: cell-based; conditions: methotrexate for 24 hours
Experimental: (§3) The inhibitory effects of PACAP38 on apoptotic cell death were assessed by the quantitative determination of cytoplasmic histone-associated DNA-fragmentation (mono- and oligonucleosomes) after exposure to methotrexate for 24 hours. Each value represents the mean plus/minus the standard deviation of six determinations. **p<0.01 and *p<0.05 compared to the cells treated only with methotrexate.
(§4) An ideal cytoprotective adjunctive agent should have the same effect as the main therapeutic agent against the intended therapeutic target, but protect the patient against the deleterious “off-target” effects of the main therapeutic. […] Furthermore, these experiments indicate that PACAP-like compounds would be beneficial as monotherapeutics for the treatment of leukemias. These experiments also indicate that combination therapy with PACAP-like compounds plus azathioprine or 6-mercaptopurine would result in an increased therapeutic index compared to azathioprine or 6-mercaptopurine, respectively, alone.

[10] = tested on: human T-lymphocyte cells (Jurkat); test: Methotrexate-induced apoptotic cell death of Jurkat cells; assay type: cell-based; conditions: methotrexate and PACAP38 for 24 hours, same dose range
Experimental: as §3, with “Jurkat cells were cultured in RPMI 1640 medium supplemented with 10% heat-inactivated fetal calf serum. The cells were treated with PACAP38 for 24 hours. The […]” for “inhibitory”, “error” for “deviation”, “eight” for “six”
as §4

rat [11] = conditions: 48 hours, cited from earlier work
rat [12] = conditions: 15-minute occlusion, continuous infusion; cited from earlier work
[13] = tested on: PC-3 human prostate cancer cells; conditions: nude mice; cited from earlier work
[14] = tested on: NCI-H838 human non-small cell lung cancer cells; conditions: nude mice; cited from earlier work
[15] = tested on: MCF-7 human breast cancer cells; conditions: nude mice; cited from earlier work
[16] = rat, in vivo, iv; cited from earlier work

CO[C@H]1C[C@@H]2CC[C@@H](C)[C@@](O)(O2)C(=O)C(=O)N2CCCC[C@H]2C(=O)O[C@H]([C@H](C)C[C@@H]2CC[C@@H](O)[C@H](OC)C2)CC(=O)[C@H](C)/C=C(\C)[C@@H](O)[C@@H](OC)C(=O)[C@H](C)C[C@H](C)/C=C/C=C/C=C/1C [sirolimus, reference compound]
apoptotic cell death ([1]; 100 ng/ml sirolimus for 24 hours, HK-2 cells): large significant increase in apoptotic cell death

PACAP27 (HSDGIFTDSYSRYRKQMAVKKYLAAVL-NH2; listed as Homo sapiens)
rate of proliferation of the human B-lymphocyte cell line [2]: significant dose-dependent inhibition

PACAP38
cyclosporine A-induced cell death [3]: almost completely prevented | cyclosporine A-induced secretion of TGF-β1 into the medium [4]: almost completely prevented the secretion of TGF-β1 | restoration of the cell monolayer, confluence (HK-2 human kidney cells): 70-80% | number of grossly elongated and filopodia-formatted cells (HK-2 human kidney cells; versus cyclosporine A alone): marked reduction | increase in TGF-β1 in the kidney (Male C57BL/6 mice): significantly reduced the increases | increase in serum creatinine (Male C57BL/6 mice): significantly reduced the increases | potency as a renoprotectant relative to VIP ([5]; tacrolimus-treated HK-2 cells): significantly more potent than VIP | loss of viable human renal proximal tubule epithelial cells caused by tacrolimus [5]: significant dose-dependent reduction | sirolimus-induced apoptotic cell death ([1]; highest dose 10^−6 M): almost completely prevented | sirolimus-induced apoptotic cell death ([1]; varying concentrations of PACAP38): significant dose-dependent reduction | relative potency of PACAP38 and VIP on interleukin-2 secretion [6]: appeared to be equipotent | mitogen-induced secretion of interleukin-2 into the medium [6]: large significant inhibition | inhibition of proliferation of Jurkat cells ([7]; highest dose 10^−5 M): more than 50% | rate of proliferation of the human T-lymphocyte cell line [7]: significant dose-dependent inhibition | cyclosporine-induced inhibition of interleukin-2 secretion [8]: small dose-dependent enhancement | inhibition of proliferation ([2]; highest dose 10^−6 M): more than 50% | rate of proliferation of the human B-lymphocyte cell line [2]: significant dose-dependent inhibition | toxic side-effects of methotrexate on human renal proximal tubule epithelial cells (apoptotic cell death) [9]: potently inhibits the toxic side-effects of methotrexate | killing of human T lymphocyte cells by methotrexate (apoptotic cell death) [10]: potently stimulates the killing | reduction of the infarct volume (rat [11]; continuous i.v. infusion beginning 4 hours after start of 2 h MCAO): approximately 51% | reduction of the infarct volume (rat [11]; continuous i.v. infusion beginning 8 hours after start of 2 h MCAO): ~22% | reduction of the infarct volume (rat [11]; continuous i.v. infusion beginning 12 hours after start of 2 h MCAO): ~12% | reduction in the number of CA1 pyramidal cells at day 7 post-occlusion (rat [12]): significantly reversed

PACAP(6-38) (FTDSYSRYRKQMAVKKYLAAVLGKRYKQRVKNK; ends and bridges not checked; UniProt P18509 137-169, looked up, fragment) [a PACAP/VIP receptor antagonist]
growth of xenografts [13]: inhibited the growth | growth of xenografts [14]: inhibited the growth | growth of xenografts [15]: inhibited the growth

VIP (HSDAVFTDNYTRLRKQMAVKKYLNSILN-NH2; listed as Homo sapiens)
loss of viable human renal proximal tubule epithelial cells caused by tacrolimus [5]: significant dose-dependent reduction | mitogen-induced secretion of interleukin-2 into the medium [6]: large significant inhibition | rate of proliferation of the human T-lymphocyte cell line [7]: significant dose-dependent inhibition | cyclosporine-induced inhibition of interleukin-2 secretion [8]: small dose-dependent enhancement

[Aib^2]PACAP38 (H[Aib]DGIFTDSYSRYRKQMAVKKYLAAVLGKRYKQRVKNK; ends and bridges not checked)
rate of proliferation of the human T-lymphocyte cell line [7]: significant dose-dependent inhibition | rate of proliferation of the human B-lymphocyte cell line [2]: significant dose-dependent inhibition

[Ala^16,Ala^17,D-Lys^38]PACAP38 (HSDGIFTDSYSRYRKAAAVKKYLAAVLGKRYKQRVKN[dK]; ends and bridges not checked)
loss of viable human renal proximal tubule epithelial cells caused by tacrolimus [5]: significant dose-dependent reduction

[Ala^22]PACAP38 (HSDGIFTDSYSRYRKQMAVKKALAAVLGKRYKQRVKNK; ends and bridges not checked)
rate of proliferation of the human B-lymphocyte cell line [2]: significant dose-dependent inhibition

[D-Ser^2,Lys^38-palmitoyl]PACAP38 (H[dS]DGIFTDSYSRYRKQMAVKKYLAAVLGKRYKQRVKNK(Palmitoyl); not fully specified (C-terminus))
loss of viable human renal proximal tubule epithelial cells caused by tacrolimus [5]: significant dose-dependent reduction

[D-Ser^2]PACAP38 (H[dS]DGIFTDSYSRYRKQMAVKKYLAAVLGKRYKQRVKNK; not fully specified (C-terminus))
loss of viable human renal proximal tubule epithelial cells caused by tacrolimus [5]: significant dose-dependent reduction | mitogen-induced secretion of interleukin-2 into the medium [6]: large significant inhibition | rate of proliferation of the human T-lymphocyte cell line [7]: significant dose-dependent inhibition | cyclosporine-induced inhibition of interleukin-2 secretion [8]: small dose-dependent enhancement

[Lys^34]PACAP38 (HSDGIFTDSYSRYRKQMAVKKYLAAVLGKRYKQKVKNK; ends and bridges not checked)
rate of proliferation of the human B-lymphocyte cell line [2]: significant dose-dependent inhibition

[^125I]-PACAP38
half-life in the bloodstream [16]: 5 to 6 min
